From patent publication US20240226170A9, “USE OF MBV FOR TREATING AUTOIMMUNE DISEASE” (University of Pittsburgh - Of the Commonwealth System of …, priority 2019, published 2024)

Legend:
[1] = test system: antibody response to the KLH antigen; details: days 7, 14, and 21 post-immunization; MBV 1 mg/ml i.v. on Day 0, 3, 6; cyclophosphamide 200 mg/kg i.p. on Day 0
Experimental: The Keyhold Limpet Hemocyanin (KLH) rat model of immunosuppression and immunotoxicity was used to assess immunotoxicity of MBV delivered systemically. […] On Day 0, the cyclophosphamide treated animals received 200 mg/kg i.p. and the MBV treated animals received 1 mg/ml UBM MBV delivered intravenously on Day 0, 3, and 6. On Day 7, all groups besides the vehicle control were immunized with 0.4 mL of 1000 μg/ml reconstituted KLH in Freund's incomplete adjuvant i.p. On days 14, 21, and 28 (7, 14, and 21 days post-immunization), whole blood was collected from the lateral tail vein and serum was isolated for analysis of anti-KLH IgM and IgG. Anti-KLH IgM and IgG were assessed in the serum of all animals using ELISA.

[2] = test system: tibiotalar joint and adjacent synovium; experiment: Histopathologic scoring of the tibiotalar joint at day 100 (pristane-induced arthritis); type: in vivo, Sprague-Dawley rats; details: i.p. MTX, not significant (p>0.05)
Text: Synovial inflammation, cartilage destruction, and proteoglycan loss are fundamental histopathologic changes that occur in RA disease progression. To determine the effect of MBV treatment on these histopathologic parameters, rat hind paws were collected at study termination for histopathologic imaging and analysis (day 100) from the animals from Example 2.
One hindpaw from each animal was used for histopathological analysis. Tissue specimens were fixed with 10% formalin in PBS, pH 7.4, decalcified using 5% formic acid, and embedded in paraffin wax. Sections were stained with hematoxylin and eosin (H&E) for examination by light microscopy for joint histology and pathology. […]
Inflammation and joint damage of the tibiotalar joint were investigated by using an adapted three-parameter scoring system. Inflammation was scored on a scale of 0-3 (with 0 representing no inflammation and 3 a severe inflamed joint) depending on the relative proportion of inflammatory cells in the synovial tissue. Cartilage destruction was scored on a scale of 0-3, with results ranging from the appearance of dead chondrocytes and empty lacunae to complete loss of articular cartilage. Loss of proteoglycans in cartilage was scored on a scale of 0-3, and here results ranged from fully stained cartilage by toluidine blue staining to complete loss of articular cartilage. […]

[3] = test system: Pristane-induced arthritis; experiment: Pristane-induced arthritis in rats, 60-point arthritis score; type: in vivo; details: for disease severity (arthritis score) compared to Pristane+PBS: p<0.05
Experimental: The Pristane-induced arthritis model in rats has been established as a clinically-relevant animal model for studying rheumatoid arthritis (Tuncel et al. PLoS One. 2016; 11(5):e0155936). Pristane induced arthritis was induced in 8-week-old, female, Sprague-Dawley rats by an intradermal injection of 300 μL Pristane (2,6,10,14-tetramethypentadecane) at the dorsal side of the tail, 1 cm distal to the base on Day 0 of the study. […] A second dose of 300 μL pristane was administered intradermally, approximately 1 cm distally to the dorsal tail base on Day 4. Animals receiving Pristane were housed together in cages. Animals receiving Pristane were randomized into the following experimental groups: Pristane-only+PBS, Pristane+i.p. Methotrexate (MTX), Pristane+periarticular (p.a.) MBV, and intravenous (i.v.) MBV.
An arthritis score was determined on days 7, 10, 14, 17, 21, 28, and every week thereafter through an endpoint of 100 days for each animal. Photographs of each forepaw and hindpaw were taken as viewed from the volar and plantar perspectives, respectively. Qualitative arthritis severity was evaluated by two independent reviewers using a 60-point arthritis scoring criteria: 1 point was given for each inflamed knuckle or toe, and up to 5 points was assigned for an affected ankle (15 points per paw, 60 points per each rat). […] The Pristane+i.p. methotrexate animals received 0.1 mg/kg methotrexate in 1× sterile PBS (pH 7.4) delivered intra-peritoneally (i.p.) on days 7, 10, 14, 17, and 21. The Pristane+periarticular MBV animals received 25 μL of 500 μg/mL porcine-derived UBM MBV (1×10^11 particles/mL) delivered in the plantar and volar surfaces of hindpaws and forepaws, respectively. The intravenous MBV group received 100 μL of 500 μg/mL UBM MBV (1×10^11 particles/mL) delivered intravenously into the lateral tail vein of the animal. (FIG. 12A) Four animals in each group were assigned to a short-term study of 28 days and four animals were assigned to a 100 day study. Sample size was determined using previously published effect size of methotrexate with a predetermined alpha 0.05 and beta 0.80. Arthritis score was represented as mean+/−standard error of mean. Days 7-21 represent an n of 8 for each group and then days 28 and onward represent an n of 4 for each group. Differences in groups were analyzed using two-way analysis of variance with Tukey's post-hoc correction. Significance was determined prior to the study as p<0.05.

[4] = test system: bone remodeling and joint destruction in fore- and hindpaws; experiment: MicroCT imaging of paws at day 100 (pristane-induced arthritis); type: in vivo, Sprague-Dawley rats; details: i.p. MTX, qualitative
Text: Micro-Computed Tomography (microCT) images were acquired of hindpaws after sacrifice at day 100 of the animals studied in Example 2.

O=P1(N(CCCl)CCCl)NCCCO1 (stereo not shown) [Cyclophosphamide]
anti-KLH IgG levels compared to the Vehicle+KLH control [1]: significantly reduces anti-KLH IgG levels
anti-KLH IgM levels compared to the Vehicle+KLH control [1]: significantly reduces anti-KLH IgM levels

CN(Cc1cnc2nc(N)nc(N)c2n1)c1ccc(C(=O)N[C@@H](CCC(=O)O)C(=O)O)cc1 [MTX, methotrexate]
severity of cartilage damage compared to Pristane+PBS [2]: reduced the severity of cartilage damage
severity of proteoglycan loss compared to Pristane+PBS [2]: reduced the severity of proteoglycan loss
peak disease score ([3]; acute phase (days 0-42), Pristane+i.p. MTX 0.1 mg/kg on days 7, 10, 14, 17, 21, peak at day 21, mean±SEM): 9.8±0.8
disease severity (arthritis score) compared to Pristane+PBS ([3]; acute phase, Pristane+i.p. MTX 0.1 mg/kg): reduced acute disease severity at days 10, 14, 17, and 21
disease severity (arthritis score) compared to Pristane+PBS ([3]; acute phase, Pristane+i.p. MTX 0.1 mg/kg, listed as methotrexate): significantly reduces disease scoring
disease severity (arthritis score) compared to Pristane+PBS ([3]; chronic phase, days 84-100, no treatment after day 28, Pristane+i.p. MTX): significant decrease in disease severity
disease severity (arthritis score) compared to Pristane+PBS ([3]; chronic phase, days 84-100, no treatment after day 28, Pristane+i.p. MTX, listed as methotrexate): significantly reduces disease scoring
adverse bone remodeling by microCT, compared to the vehicle control [4]: substantially prevented adverse bone remodeling
